Patent US20260070886A1, “QUINOLINE PIPERAZINE DERIVATIVES, PHARMACEUTICAL COMPOSITION AND USES THEREOF” (priority 2022, published 2026)

Columns and labels:
[1] = system: Non-small cell lung cancer cell lines; assay: Cell Titer Glo assay, overall statement; type: cell-based, human; conditions: summary in words
Text: (§1) The following human derived non-small cell lung cancer cell lines were used to test the efficiency of the compounds to cause cell death and assess the anti-cancer properties of said compounds: 1. A549 cells: adenocarcinomic human alveolar basal epithelial cells; these cells are used as models for the study of lung cancer and the development of drug therapies against it • 2. NCI-H-460 cells are also human lung cancer cells, and • 3. NCI-H-522 cells are also human lung cancer cells.
(§2) Cells were cultured and maintained in F12K+10% FBS+1× anti-anti media and RPMI+10% FBS+1× anti-anti media. Cells were trypsinised and expanded to ensure that cells are not over-confluent and are in log growth phase. On day 0, 500 cells/well were seeded in 30 μl media using cell culture treated white flat bottom 384 well plate, centrifuged at 40×g for 10 seconds and incubated overnight in […], 5% CO2 incubator. On day 1, 4× concentration of compounds were prepared in complete media, 10 μl was added to cells, centrifuged at 40×g for 10 seconds and incubated 72 hours in 37° C., 5% CO2 incubator. Compounds tested: 100 μM top, 3 fold dilution and 10 point DRC in triplicate. Final DMSO concentration was maintained at 0.5% for all compound. No compound/DMSO was used as a control. On day 4 (72 hours post treatment) plates were brought to room temperature for 10 min 10 μl of CellTiter Glo reagent was added to each well and placed the plates on an orbital shaker for 10 minutes at room temperature. Luminescence signal was read on the Envision plate reader using the ultra-sensitive luminescence protocol. Data was plotted and analyzed using the below formula: DMSO control treated cells RLU considered as 100% cell viability.
(§3) Table 7 provides the IC50 values for cell toxicity of most efficient derivatives of Formula A.

[2] = system: Non-small cell lung cancer cell lines; assay: Cell toxicity assay, overall statement; type: cell-based; conditions: summary in words of Table 6
Text: as §1
(§4) 500 cells/well/30 μL were seeded in a 384 well cell culture plate. Incubated over night at 37° C., 5% CO2 in cell culture incubator. 10 μL of 4× compound was added to the plates, and incubated for 72 hours at 37° C., 5% CO2 in cell culture incubator. Assay DMSO control were included for 0% cytotoxicity control. Assay was terminated by addition of 10 μL of the reagent CTG 2.0 detection reagent #G9242. Plates were incubated for 20 minute incubation at room temperature with shaking Plate were read in Envision. Ultrasensitive luminescence and data was analyzed and percent cytotoxicity of compounds was determined against DMSO control.
(§5) All the compounds, A1-A116, were tested for cell toxicity using said non-small cell lung cancer cell lines using the above described method.
These selected derivatives of Formula A were further tested to confirm their efficiency as anti-cancer compounds.

NCI-H-522 = assay: CellTiter Glo assay, NCI-H-522; type: cell-based; conditions: Homo sapiens, NCI-H522; 72 hours, 10 point DRC, 100 μM top; read-out: Cytotoxicity IC50 NCI-H-522
Text: as §1, §2, §3

A549 cells = assay: Cell cytotoxicity assay, A549 cells; type: cell-based; conditions: Homo sapiens, 72 hours, percent cytotoxicity against DMSO control; for cytotoxicity at 1 µM: 1 μM compound, read-out: Cell toxicity A549 cells 1 μM; for cytotoxicity at 10 µM: 10 μM compound, read-out: Cell toxicity A549 cells 10 μM
Text: as §1, §4, §5

NCI-H-460 = assay: CellTiter Glo assay, NCI-H-460; type: cell-based; conditions: Homo sapiens, NCI-H460; 72 hours, 10 point DRC, 100 μM top; read-out: Cytotoxicity IC50 NCI-H-460
Text: as §1, §2, §3

NCI-H-522 cells = assay: Cell cytotoxicity assay, NCI-H-522 cells; type: cell-based; conditions: Homo sapiens, NCI-H522, 72 hours, percent cytotoxicity against DMSO control; for cytotoxicity at 1 µM: 1 μM compound, read-out: Cell toxicity NCI-H-522 cells 1 μM; for cytotoxicity at 10 µM: 10 μM compound, read-out: Cell toxicity NCI-H-522 cells 10 μM
Text: as §1, §4, §5

NCI-H-460 cells = assay: Cell cytotoxicity assay, NCI-H-460 cells; type: cell-based; conditions: Homo sapiens, NCI-H460, 72 hours, percent cytotoxicity against DMSO control; for cytotoxicity at 1 µM: 1 μM compound, read-out: Cell toxicity NCI-H-460 cells 1 μM; for cytotoxicity at 10 µM: 10 μM compound, read-out: Cell toxicity NCI-H-460 cells 10 μM
Text: as §1, §4, §5

A549 = assay: CellTiter Glo assay, A549; type: cell-based; conditions: Homo sapiens, 72 hours, 10 point DRC, 100 μM top, read-out: Cytotoxicity IC50 A549
Text: as §1, §2, §3

| Structure (SMILES) | efficiency in cell toxicity against Non-small cell lung cancer cell lines [1] | activity against Non-small cell lung cancer (cell toxicity) [2] | IC50 (NCI-H-522) | cytotoxicity at 1 µM (A549 cells) | cytotoxicity at 10 µM (A549 cells) | IC50 (NCI-H-460) | cytotoxicity at 1 µM (NCI-H-522 cells) | cytotoxicity at 10 µM (NCI-H-522 cells) | cytotoxicity at 1 µM (NCI-H-460 cells) | cytotoxicity at 10 µM (NCI-H-460 cells) | IC50 (A549) |
| --- | --- | --- | --- | --- | --- | --- | --- | --- | --- | --- | --- |
| COc1cc(Nc2nc(N3CCN(c4ccnc5cc(Cl)ccc45)CC3)cc(C(F)(F)F)n2)cc(OC)c1 [Compound A1, 4-(4-(7-chloroquinolin-4-yl)piperazin-1-yl)-N-(3,5-dimethoxyphenyl)-6-(trifluoromethyl)pyrimidin-2-amine] | best efficiency | active | 3040 nM | 42% | 97% | 2410 nM | 21% | 50% | 19% | 82% | 1590 nM |
| COc1cc(Nc2nc(C)cc(N3CCN(c4ccnc5ccccc45)CC3)n2)cc(OC)c1 [Compound A42, N-(3,5-dimethoxyphenyl)-4-methyl-6-(4-(quinolin-4-yl)piperazin-1-yl)pyrimidin-2-amine] | best efficiency | active | 4210 nM | 68% | 98% | 2350 nM | 20% | 80% | 4% | 67% | 1010 nM |
| COc1cc(Nc2nc(C)cc(N3CCN(c4ccnc5cc(F)ccc45)CC3)n2)cc(OC)c1 [Compound A48, N-(3,5-dimethoxyphenyl)-4-(4-(7-fluoroquinolin-4-yl)piperazin-1-yl)-6-methylpyrimidin-2-amine] | best efficiency | active | 3240 nM | 57% | 98% | 1840 nM | 16% | 71% | 0% | 66% | 818 nM |
| COc1cncc(Nc2nc(N3CCN(c4ccnc5cc(Cl)ccc45)CC3)cc(C(F)(F)F)n2)c1 [Compound A7, 4-(4-(7-chloroquinolin-4-yl)piperazin-1-yl)-N-(5-methoxypyridin-3-yl)-6-(trifluoromethyl)pyrimidin-2-amine] | best efficiency | active | 2560 nM | 53% | 65% | 3420 nM | 18% | 42% | -1% | 25% | 4190 nM |
| COc1cc(Nc2nc(N3CCN(c4ccnc5cc(F)ccc45)CC3)cc(C(F)(F)F)n2)cc(OC)c1 [Compound A49, N-(3,5-dimethoxyphenyl)-4-(4-(7-fluoroquinolin-4-yl)piperazin-1-yl)-6-(trifluoromethyl)pyrimidin-2-amine] | best efficiency | active | 1840 nM | 64% | 99% | 842 nM | 45% | 77% | 3% | 59% | 576 nM |
| COc1cc(Nc2nc(N3CCN(c4ccnc5ccccc45)CC3)cc(C(F)(F)F)n2)cc(OC)c1 [Compound A43, N-(3,5-dimethoxyphenyl)-4-(4-(quinolin-4-yl)piperazin-1-yl)-6-(trifluoromethyl)pyrimidin-2-amine] | best efficiency | active | 1230 nM | 88% | 99% | 943 nM | 48% | 73% | 8% | 65% | 665 nM |
